The record followed here is paper PMC5356007, “A conserved inter-domain communication mechanism regulates the ATPase activity of the AAA-protein Drg1” (Scientific Reports, 2017).

Numbering of substitutions follows the chain as printed. Where two headings read alike, the source gives them in different places.

Test [1] addresses T1, Drg1 (Saccharomyces cerevisiae, UniProt P32794, K292A).
T1 construct: gene AFG2; full-length type II AAA-ATPase, N-terminal GST-tag with PreScission site (plasmids derived from pAZ7), expressed in yeast from CUP1 promoter; Walker A mutants KA1 (K292A) and KA2 (K563A); hexamer in presence of nucleotide
T1 sequence (P32794 1-780 K292A): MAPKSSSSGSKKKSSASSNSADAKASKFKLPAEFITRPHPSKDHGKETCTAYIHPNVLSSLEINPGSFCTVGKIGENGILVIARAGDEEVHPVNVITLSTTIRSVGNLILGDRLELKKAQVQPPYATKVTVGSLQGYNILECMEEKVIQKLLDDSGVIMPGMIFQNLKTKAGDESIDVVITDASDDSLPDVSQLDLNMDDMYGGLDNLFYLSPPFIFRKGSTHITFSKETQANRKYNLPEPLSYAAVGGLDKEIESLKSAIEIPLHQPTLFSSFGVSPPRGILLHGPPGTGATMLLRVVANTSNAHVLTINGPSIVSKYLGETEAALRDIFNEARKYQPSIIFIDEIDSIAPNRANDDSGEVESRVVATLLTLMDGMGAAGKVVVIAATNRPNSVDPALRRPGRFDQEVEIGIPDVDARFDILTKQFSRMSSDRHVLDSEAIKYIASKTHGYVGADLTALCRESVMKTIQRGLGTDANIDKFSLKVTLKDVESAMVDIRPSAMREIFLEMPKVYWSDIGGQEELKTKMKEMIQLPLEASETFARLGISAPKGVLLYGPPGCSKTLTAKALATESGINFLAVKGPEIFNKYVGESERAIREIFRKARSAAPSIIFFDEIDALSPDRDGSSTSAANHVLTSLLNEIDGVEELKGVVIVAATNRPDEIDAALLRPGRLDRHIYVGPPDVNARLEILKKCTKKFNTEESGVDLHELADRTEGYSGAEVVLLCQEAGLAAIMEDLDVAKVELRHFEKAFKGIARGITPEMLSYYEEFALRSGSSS
Put plainly: differential scanning fluorimetry. The following applies: read-out: Kd(ATP). Format: binding. (DSF heats the sample and reads unfolding from a dye or from intrinsic fluorescence.)

In test [2] the target is T2, Drg1 (Saccharomyces cerevisiae, UniProt P32794, K563A).
T2 construct: gene AFG2; full-length type II AAA-ATPase, N-terminal GST-tag with PreScission site (plasmids derived from pAZ7), expressed in yeast from CUP1 promoter; Walker A mutants KA1 (K292A) and KA2 (K563A); hexamer in presence of nucleotide
T2 sequence (P32794 1-780 K563A): T1 sequence (P32794 1-780 K292A) with A292K, K563A
Put plainly: differential scanning fluorimetry. In kind it is binding.

On to `Nc1ncnc2c1ncn2[C@@H]1O[C@H](COP(=O)(O)OP(=O)(O)OP(=O)(O)O)[C@@H](O)[C@H]1O` [ATP], for which the Kd on Drg1 [1] was about 80 µM; at Drg1 [2] (read-out: Kd(ATP)), about 20 µM. Regarding `Nc1ncnc2c1ncn2[C@@H]1O[C@H](COP(=O)(O)OP(=O)(O)O)[C@@H](O)[C@H]1O` [ADP], at Drg1 [2] (read-out: Kd(ADP)), the Kd is about 120 µM.

Usually Kd stands for the constant that tells how readily two partners part at equilibrium.
